Where a SMILES comes first, the peptide text is derived from it. The star is where a group is joined. NHC(CH2O-Palmitoyl)3 = CCCCCCCCCCCCCCCC(=O)OCC(COC(=O)CCCCCCCCCCCCCCC)(COC(=O)CCCCCCCCCCCCCCC)N*; X5 = CCCCCCCCCCCCCCCC(=O)OCC(CO)(COC(=O)CCCCCCCCCCCCCCC)N*; X1 = CCCCCCCCCCCCCCCC(=O)OCC(CO)(CO)N*; NHC(CH2OH)3 = OCC(CO)(CO)N*
Legend:
Cos 1 cells = assay: Transfection of pSVLCAT, CAT assay, Cos 1; assay type: cell-based, African Green Monkey; details: for Transfection (CAT): Table 1, Cos 1, optimised level of agent
Method: To test the transfection properties of the lead compound K3ATP3 (VerafectinA3), whole uncut plasmid carrying the gene encoding CAT (chloramphenicol acetyl transferase) under the control of the SV40 late promoter, pSVLCAT (Cameron, F. H. and Jennings, P. A. (1989) PNAS 86, 9139-9143) was mixed with the test agent and put on Cos 1 cells under various conditions. After 48 hours of culture the level of secreted CAT was assayed from the culture medium.
Solution I: 1 μg Plasmid DNA in 500 μl Dulbeccos Modified Eagles Medium (DME)
Solution II: 0-20 μl VerafectinA3 (2.5 mg/ml 25% DMSO) in 500 μl DME, Vortex
Combine solution I and II, vortex briefly and incubate at room temperature for 10 min.
Add mix to washed cells in 60 mm tissue culture dishes (seeded 0.5×10^6 /dish previous day) for 6 hrs at 37° C., 5% C02. Add 2 ml DME+10% FCS for remainder of 48 hrs. Assay CAT levels in tissue culture medium (Sleigh, M. J. (1986) Anal. Biochem. 156.251-256).
a--Compare VerafectinA3 dissolved in DMSO or ethanol.
b--Compare VerafectinA3 on cells 6 hrs to overnight. VerafectinA3 at 10 mg/ml in 100% solvent was diluted to 2.5 mg/ml with water.
Transfection was carried out as for experiment 1. VerafectinA3 was left in contact with the cells for varying times.
Protocol was the same for the Verafectins as described above. Lipofectamine protocol was according to manufacturers instructions. Cos 1 cells were seeded at 5×10^5 /60 mm dish and adhered overnight in DME with 10% FCS.
Solution A: 0.5 μg pSVLCAT/60 mm dish.
Solution B: Lipofectamine 10 and 15 μl 2 mg/ml (mixed formulation 3:1 with DOPE).
OR; VerafectinA3 and VerafectinG2 20 μl 2 mM (2.8 and 2.3 mg/ml respectively) stock.
OR; VerafectinG2 was also tested with an equimolar amount of DOPE. VerafectinG2 and DOPE were mixed in DDME and vortexed for 30 seconds before use. Solutions A and B were combined before overlaying on washed cells.
The serum free incubation period in the presence of test agents and DNA was 6 hrs, then 1 ml DME+10% FCS was added. At 24 hours medium was changed to 2 ml fresh DME+10% FCS until harvest at 48 hrs.
(§1) Cell lines Cos 1 or CHO were transfected with 0.5 μg of pSVLCAT or 2 μg of pPGKlacZ plasmid using a range of concentrations of each transfection compound. The optimal concentration of compound, that is the concentration giving the highest level of CAT at 48 hours or the greatest percentage of lac z (β-galactosidase) staining cells at 24 hours was used to collate data for Table 1. As all compounds were not tested in a single experiment, absolute figures indicating transfection were not used. Rather, symbols are used to indicate the transfection efficiency relative to Lipofectamine (BRL), which was included as a control in all experiments. Table 1 thus indicates the relative efficiencies of a number of compounds in mediating the transfection of at least one cell type.
(§2) All test lipopeptide reagents were originally dissolved at 10 mM in 75% DMSO, and subsequently diluted with water to make a 2 mM stock stored at 4° C. Volumes of 2 mM stock lipopeptide ranging from 2 μl to 15 μl were diluted in 500 μl of DDME. 1 μg of plasmid pSVLCAT was separately diluted in 500 μl of DDME. Solutions were combined for 10-20 min at room temperature before adding to 500 μl of DDME in 60 mm dishes of subconfluent CHO cells (2×10^5 day-1) or Cos 1 cells (5×10^5 day-1); washed free of serum with DDME.
(§3) Cells were incubated for 6 hrs under standard conditions of 37° C. and 5% CO2 for 6 hours. 1.5 ml of DME/Hams+10% FCS (CHO) or DME+10% FCS (Cos 1) was added to the cells for overnight incubation. Fresh DME/Hams+10% FCS or DME+10% FCS was used to replace the medium for a further 24 hours prior to harvest. Cell lysates were prepared and assayed for CAT activity as described above. For Cos 1 cells, culture supernatants were assayed for CAT activity.
For transfection of pSVLCAT and subsequent assay of CAT enzyme, experiments "a" and "b" were carried out as described above.

CHO cells = assay: Transfection of pSVLCAT, CAT assay, CHO; assay type: cell-based, Chinese Hamster; details: for Transfection (CAT): Table 1, CHO, optimised level of agent
Method: Protocol was the same for Verafectin and Transfectam (see above) with the exception that 0.5 μg of pSVLCAT DNA was used /60 mm dish.
Lipofectamine protocol was according to manufacturer's instructions. 0.5 μg pSVLCAT/60 mm dish. CHO cells seeded 1×10^5 /60 mm dish and adhered overnight in DME/Hams medium with 10% FCS.
Transfectam 5 or 10 μl 1mg/400 μl stock solution.
Lipofectamine 5 or 10 μl 2 mg/ml (mixed formulation 3:1 with DOPE). VerafectinA3 (K3ATP3) and VerafectinG2 (K3G[Glycine]TP2) each at 5, 10 and 15 μl of 2 mM (2.8 and 2.3 mg/ml respectively) stock.
The serum free incubation period in the presence of test agents and DNA was 6 hours, then 1 ml DME/Hams+10% FCS was added. At 24 hrs the medium was changed to 2 ml of fresh DME/Hams+10% FCS until harvest at 48 hrs.
as §1, §2, §3
a. Using the standard transfection procedure described above, and 1 μg plasmid pSVLCAT, these formulations were tested on CHO cells at a single concentration equivalent to 10 μl of Verafectin A2 (2 mM) per sample and compared to unformulated compound and Lipofectamine in the same cell type. CAT production was assayed 48 hours after transfection.

[1] = "x" peptide experiment a, CHO, 25 μl lysate, 20 min assay at 37° C., optimal level

## NCCCC[C@H](NC(=O)[C@H](CCCCN)NC(=O)[C@@H](N)CCCCN)C(=O)NCC(=O)NC(CO)(CO)CO [K3GTP0] (H-KKKG-{NHC(CH2OH)3})
Cos 1 cells
  Transfection (CAT): -

## CCCCCCCCCCCCCCCC(=O)OCC(CO)(COC(=O)CCCCCCCCCCCCCCC)NC(=O)[C@H](C)NC(=O)[C@H](CCCCN)NC(=O)[C@H](CCCCN)NC(=O)[C@H](CCCCN)NC(=O)[C@H](CCCCN)NC(=O)[C@@H](N)CCCCN [K5ATP2] (H-KKKKKA-X5)
CHO cells; [1]
  CAT activity (mean): 132 cpm

## CCCCCCCCCCCCCCCC(=O)OCC(COC(=O)CCCCCCCCCCCCCCC)(COC(=O)CCCCCCCCCCCCCCC)NC(=O)[C@H](C)NC(=O)[C@H](CCCCN)NC(=O)[C@@H](N)CCCCN [K2ATP3]
Cos 1 cells; R1-R4 experiment a, Cos 1, K2 A linker
  transfection, number of palmitates: high levels of transfection

## CCCCCCCCCCCCCCCC(=O)OCC(CO)(COC(=O)CCCCCCCCCCCCCCC)NC(=O)[C@H](C)NC(=O)[C@H](CCCCN)NC(=O)[C@H](CCCCN)NC(=O)[C@@H](N)CCCCN [K3ATP2, trilysine alanine tris dipalmitate]
CHO cells; CHO, unformulated
  CAT levels relative to Lipofectamine, non-liposome formulation: around 5%
CHO cells; R1-R4 experiment e, CHO
  CAT activity (mean): 984 cpm
CHO cells
  Transfection (CAT): +/-
Cos 1 cells
  Transfection (CAT): +/-

## CCCCCCCCCCCCCCCC(=O)OCC(COC(=O)CCCCCCCCCCCCCCC)(COC(=O)CCCCCCCCCCCCCCC)NC(=O)[C@H](C)NC(=O)[C@H](CCCCN)NC(=O)[C@H](CCCCN)NC(=O)[C@H](CCCCN)NC(=O)[C@H](CCCCN)NC(=O)[C@@H](N)CCCCN [K5ATP3] (H-KKKKKA-{NHC(CH2O-Palmitoyl)3})
CHO cells; [1]
  CAT activity (mean): 1785 cpm
CHO cells; "x" peptide experiment c, CHO, 2 hours incubation of 20 μl lysate
  mean level of CAT activity: 6363

## CCCCCCCCCCCCCCCC(=O)OCC(CO)(CO)NC(=O)CNC(=O)[C@H](CCCCN)NC(=O)[C@H](CCCCN)NC(=O)[C@@H](N)CCCCN [K3GTP1] (H-KKKG-X1)
CHO cells
  Transfection (CAT): +
Cos 1 cells
  Transfection (CAT): +

## CCCCCCCCCCCCCCCC(=O)OCC(CO)(COC(=O)CCCCCCCCCCCCCCC)NC(=O)[C@H](C)NC(=O)[C@H](CCCCN)NC(=O)[C@@H](N)CCCCN [K2ATP2]
CHO cells; [1]
  CAT activity (mean): 5418 cpm
Cos 1 cells; "x" peptide experiment b, Cos 1
  transfection with second lysine relative to single K: ~5 times
Cos 1 cells; "x" peptide experiment b, Cos 1, 25 μl lysate, 135 min 37° C.
  CAT activity (mean): 62,215 cpm
Cos 1 cells; "y" linker experiment b, Cos 1
  transfection, linkers A and L compared: very similar activities

## C[C@H](NC(=O)[C@H](CCCCN)NC(=O)[C@H](CCCCN)NC(=O)[C@@H](N)CCCCN)C(=O)NC(CO)(CO)CO [K3ATP0] (H-KKKA-{NHC(CH2OH)3})
Cos 1 cells
  Transfection (CAT): -
